Results taken from PMC4807435 (CPT: Pharmacometrics & Systems Pharmacology, 2016).

Columns and labels:
[1] = Population PK model of unbound and total LPV/RTV in HIV-infected pregnant women; type: in vivo, human; conditions: for Total body clearance CL/F, back-calculated, median (range): intrinsic clearance × unbound fraction
[2] = 2nd trimester vs. pp; capsules; ref Mirochnick et al., JAIDS, 2008 (9); cited from earlier work
LPV intrinsic clearance [3] = test: LPV-RTV interaction modeling; type: in vivo, human
LPV intrinsic clearance [4] = conditions: same interaction function form; ref Wang et al., 32; cited from earlier work
[5] = final model, 500 bootstrap replicates
[6] = final model, 500 bootstrap replicates, weight-scaled model (per 70kg)

Compound	Apparent intrinsic clearance CLu/F, post hoc estimate, median (range) ([1]; Visit 1 (20–24 weeks))	Total body clearance CL/F, back-calculated, median (range) ([1]; Visit 1 (20–24 weeks))	Total body clearance CL/F, back-calculated, median (range) ([1]; Visit 2 (30 weeks))	Apparent intrinsic clearance CLu/F, post hoc estimate, median (range) ([1]; Visit 3 (32 weeks))	Total body clearance CL/F, back-calculated, median (range) ([1]; Visit 3 (32 weeks))	Apparent intrinsic clearance CLu/F, post hoc estimate, median (range) ([1]; Visit 4 (8 weeks postpartum))	Total body clearance CL/F, back-calculated, median (range) ([1]; Visit 4 (8 weeks postpartum))	Interindividual variability of CLu/F, bootstrap estimates (95% CI) ([1]; final model)	Interindividual variability of CLu/F, estimate ([1]; final model)	Interindividual variability of fu, bootstrap estimates (95% CI) ([1]; final model)	Interindividual variability of fu, estimate ([1]; final model)	Interoccasion variability of fu, bootstrap estimates (95% CI) ([1]; final model)	Interoccasion variability of fu, estimate ([1]; final model)	Interoccasion variability of ka, estimate ([1]; final model)	Lag time, estimate ([1]; final model)	ka, estimate ([1]; final model)	Lag time, bootstrap estimates (95% CI) [1, 5]	ka, bootstrap estimates (95% CI) [1, 5]	further results
Cc1cccc(C)c1OCC(=O)N[C@@H](Cc1ccccc1)[C@@H](O)C[C@H](Cc1ccccc1)NC(=O)[C@H](C(C)C)N1CCCNC1=O [LPV, lopinavir]	232 (226, 237) L/hr	5.92 (5.22, 7.22) L/hr	6.69 (5.73, 8.21) L/hr	269 (263, 276) L/hr	6.94 (5.90, 8.46) L/hr	167 (165, 168) L/hr	4.28 (3.65, 5.25) L/hr	2.10 (0.32, 11.4) %CV	2.70 %CV	3.81 (0.32, 10.3) %CV	4.60 %CV	9.98 (4.68, 13.3) %CV	10.0 %CV	138 %CV	1.77 h	1.07 h⁻¹	1.75 (1.25, 1.93) h	0.906 (0.582, 1.78) h^−1	Increase of median post hoc CLu/F compared to 8 weeks postpartum ([1]; 20–24 weeks of gestation (22 weeks elsewhere in the source)): 38%; Increase of median post hoc CLu/F compared to 8 weeks postpartum ([1]; 30 weeks of gestation): 56%; Increase of median post hoc CLu/F compared to 8 weeks postpartum ([1]; 32 weeks of gestation): 61%; CL/F, estimate ([1]; CL/F = fu × CLu/F): 4.31 L/h; V/F, estimate ([1]; V/F = fu × Vu/F): 88.5 L; Apparent intrinsic clearance CLu/F, post hoc estimate, median (range) ([1]; Visit 2 (30 weeks)): 261 (255, 264) L/hr; fraction unbound ([1]; female, human, plasma, oral, fu, estimate, final model, unbound fraction): 0.0258; Interoccasion variability of CLu/F, bootstrap estimates (95% CI) ([1]; final model): 23.4 (16.1, 29.7) %CV; Interoccasion variability of CLu/F, estimate ([1]; final model): 24.7 %CV; Vu/F, estimate ([1]; final model): 3430 L; CLu/F, bootstrap estimates (95% CI) [1, 5]: 167 (136, 202) L/h; Coefficient of gestational week impact on CLu/F, bootstrap estimates (95% CI) [1, 5]: 0.0148 (0.00835, 0.0223); Vu/F, bootstrap estimates (95% CI) [1, 5]: 3325 (2655, 4256) L; CLu/F, estimate ([1]; final model, population value at gestational week zero (postpartum reference)): 167 L/h; Coefficient of gestational week impact on CLu/F, estimate ([1]; individual final model, CLu/F = θ × e^(coef×WEEK)): 0.0148; Unbound fraction, pregnancy vs postpartum ([1]; population PK covariate analysis): not significantly different; Difference among unbound AUC fractions across the four study visits ([1]; post hoc repeated-measures ANOVA, P > 0.05): no significant findings; Decrease in AUC [2]: 52%; LPV clearance estimate (CLu/F) (LPV intrinsic clearance [3]; Basic joint model: LPV and RTV individual final models without interactions): 167 L/h
CC(C)c1nc(CN(C)C(=O)N[C@H](C(=O)N[C@@H](Cc2ccccc2)C[C@H](O)[C@H](Cc2ccccc2)NC(=O)OCc2cncs2)C(C)C)cs1 [RTV, ritonavir]	273 (161, 421) L/hr	38.2 (26.0, 42.1) L/hr	52.3 (33.6, 74.1) L/hr	357 (191, 508) L/hr	58.5 (32.6, 93.6) L/hr	178 (101, 257) L/hr	26.9 (16.6, 37.5) L/hr	10.6 (1.92, 19.0) %CV	8.5 %CV	23.3 (12.2, 34.4) %CV	24.4 %CV	20.8 (12.6, 28.6) %CV	23.5 %CV	141.8 %CV	1.86 h	1.01 h⁻¹	1.86 (1.67, 1.94) h	1.01 (0.340, 2.00) h^−1	Interoccasion variability of F, bootstrap estimates (95% CI) ([1]; final model): 30.9 (17.1, 46.1) %CV; Interoccasion variability of F, estimate ([1]; final model): 36.2 %CV; Interoccasion variability of ka, bootstrap estimates (95% CI) ([1]; final model): 142 (81.5, 201) %CV; CLu/F, bootstrap estimates (95% CI) [1, 6]: 157 (120, 202) L/h; Vu/F, bootstrap estimates (95% CI) [1, 6]: 1630 (1040, 2100) L; Interaction value (LPV-RTV interaction coefficient) (LPV intrinsic clearance [4]): 0.00064; Interaction parameter (coef) (LPV intrinsic clearance [3]; Model 6, CRTV exponential model, unbound RTV concentration): 0.0028; Interaction coefficient in terms of total RTV concentration (LPV intrinsic clearance [3]; exponential interaction function): 0.00041
